Patent publication US10647713B2 (Nimbus Lakshmi, Inc., priority 2016, dated 2020)

Molecular target: human TYK2 (JH2domain-pseudokinase) (Homo sapiens (Human), UniProt P29597)
Test: TYK2 JH2 Domain Binding Assay (KINOMEscan, DiscoveRx)
Settings: 11-point dilution, duplicate
Procedure: Binding constants for compounds of the present invention against the JH2 domain were determined by the following protocol for a KINOMEscan® assay (DiscoveRx). A fusion protein of a partial length construct of human TYK2 (JH2domain-pseudokinase) (amino acids G556 to D888 based on reference sequence NP_003322.3) and the DNA binding domain of NFkB was expressed in transiently transfected HEK293 cells. From these HEK 293 cells, extracts were prepared in M-PER extraction buffer (Pierce) in the presence of Protease Inhibitor Cocktail Complete (Roche) and Phosphatase Inhibitor Cocktail Set II (Merck) per manufacturers' instructions. The TYK2 (JH2domain-pseudokinase) fusion protein was labeled with a chimeric double-stranded DNA tag containing the NFkB binding site (5′-GGGAATTCCC-3′) fused to an amplicon for qPCR readout, which was added directly to the expression extract (the final concentration of DNA-tag in the binding reaction is 0.1 nM).
Streptavidin-coated magnetic beads (Dynal M280) were treated with a biotinylated small molecule ligand for 30 minutes at room temperature to generate affinity resins the binding assays. The liganded beads were blocked with excess biotin and washed with blocking buffer (SeaBlock (Pierce), 1% BSA, 0.05% Tween 20, 1 mM DTT) to remove unbound ligand and to reduce nonspecific binding.
The binding reaction was assembled by combining 16 μl of DNA-tagged kinase extract, 3.8 μl liganded affinity beads, and 0.18 μl test compound (PBS/0.05% Tween 20/10 mM DTT/0.1% BSA/2 μg/ml sonicated salmon sperm DNA)]. Extracts were used directly in binding assays without any enzyme purification steps at a ≥10,000-fold overall stock dilution (final DNA-tagged enzyme concentration <0.1 nM). Extracts were loaded with DNA-tag and diluted into the binding reaction in a two step process. First extracts were diluted 1:100 in 1× binding buffer (PBS/0.05% Tween 20/10 mM DTT/0.1% BSA/2 μg/ml sonicated salmon sperm DNA) containing 10 nM DNA-tag. This dilution was allowed to equilibrate at room temperature for 15 minutes and then subsequently diluted 1:100 in 1× binding buffer. Test compounds were prepared as 111× stocks in 100% DMSO. Kds were determined using an 11-point 3-fold compound dilution series with three DMSO control points. All compounds for Kd measurements are distributed by acoustic transfer (non-contact dispensing) in 100% DMSO. The compounds were then diluted directly into the assays such that the final concentration of DMSO was 0.9%. All reactions performed in polypropylene 384-well plates. Each was a final volume of 0.02 mL. Assays were incubated with shaking for 1 hour at room temperature. Then the beads were pelleted and washed with wash buffer (1×PBS, 0.05% Tween 20) to remove displaced kinase and test compound. The washed based were re-suspended in elution buffer (1×PBS, 0.05% Tween 20, 0.5 μM non-biotinylated affinity ligand) and incubated at room temperature with shaking for 30 minutes. The kinase concentration in the eluates was measured by qPCR. qPCR reactions were assembled by adding 2.5 μL of kinase eluate to 7.5 μL of qPCR master mix containing 0.15 μM amplicon primers and 0.15 μM amplicon probe. The qPCR protocol consisted of a 10 minute hot start at 95° C., followed by 35 cycles of 95° C. for 15 seconds, 60° C. for 1 minute.
Test compounds were prepared as 111× stocks in 100% DMSO. Kds were determined using an 11-point 3-fold compound dilution series with three DMSO control points. All compounds for Kd measurements are distributed by acoustic transfer (non-contact dispensing) in 100% DMSO. The compounds were then diluted directly into the assays such that the final concentration of DMSO was 0.9%. The Kds were determined using a compound top concentration of 30,000 nM. Kd measurements were performed in duplicate.
Binding constants (Kds) were calculated with a standard dose-response curve using the Hill equation: […]
The Hill Slope was set to −1. […]

Sequence of human TYK2 (JH2domain-pseudokinase) (P29597 556-888): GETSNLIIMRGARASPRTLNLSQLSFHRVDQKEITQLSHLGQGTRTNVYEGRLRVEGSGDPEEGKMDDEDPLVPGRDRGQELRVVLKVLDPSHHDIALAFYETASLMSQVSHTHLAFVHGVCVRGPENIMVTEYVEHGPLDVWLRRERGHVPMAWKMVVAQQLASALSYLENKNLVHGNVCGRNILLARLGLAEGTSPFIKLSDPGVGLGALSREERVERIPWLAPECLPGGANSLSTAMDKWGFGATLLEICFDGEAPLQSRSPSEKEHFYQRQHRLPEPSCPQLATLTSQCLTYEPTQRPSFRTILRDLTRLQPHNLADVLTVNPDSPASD

Structure (SMILES)	Kd [nM]
COc1c(Nc2cc(Nc3cnc(C)c(C#N)n3)nc3[nH]c(C(F)F)nc23)cccc1-c1nnn(C)n1 [I-38, 6-((2-(difluoromethyl)-7-((2-methoxy-3-(2-methyl-2H-tetrazol-5-yl)phenyl)amino)-3H-imidazo[4,5-b]pyridin-5-yl)amino)-3-methylpyrazine-2-carbonitrile]	1 to 10
COc1c(Nc2cc(Nc3ccc(N4CC[C@H](OC)C4)c(C#N)n3)nc3[nH]c(C(F)F)nc23)cccc1-c1nnn(C)n1 [I-39, (S)-6-((2-(difluoromethyl)-7-((2-methoxy-3-(2-methyl-2H-tetrazol-5-yl)phenyl)amino)-3H-imidazo[4,5-b]pyridin-5-yl)amino)-3-(3-methoxypyrrolidin-1-yl)picolinonitrile]	0.1 to 0.5
COc1c(Nc2cc(Nc3ccc(N4CCC4)c(C#N)n3)nc3[nH]c(C(F)F)nc23)cccc1-c1nnn(C)n1 [I-40, 3-(azetidin-1-yl)-6-((2-(difluoromethyl)-7-((2-methoxy-3-(2-methyl-2H-tetrazol-5-yl)phenyl)amino)-3H-imidazo[4,5-b]pyridin-5-yl)amino)picolinonitrile]	0.1 to 0.5
COc1c(Nc2cc(NC(=O)C3CC3)nc3[nH]c(C(F)F)nc23)cccc1-c1nc(C)nn1C [I-41, N-(2-(difluoromethyl)-7-((3-(1,3-dimethyl-1H-1,2,4-triazol-5-yl)-2-methoxyphenyl)amino)-3H-imidazo[4,5-b]pyridin-5-yl)cyclopropanecarboxamide]	> 10
COc1c(Nc2cc(Nc3ccc(C(C)C)c(C#N)n3)nc3[nH]c(C(F)F)nc23)cccc1-c1nnn(C)n1 [I-42, 6-((2-(difluoromethyl)-7-((2-methoxy-3-(2-methyl-2H-tetrazol-5-yl)phenyl)amino)-3H-imidazo[4,5-b]pyridin-5-yl)amino)-3-isopropylpicolinonitrile]	1 to 10
Cc1ccc(Nc2cc(Nc3ccccc3N(C)S(C)(=O)=O)c3nc(C(F)F)[nH]c3n2)nn1 [I-43, N-(2-((2-(difluoromethyl)-5-((6-methylpyridazin-3-yl)amino)-3H-imidazo[4,5-b]pyridin-7-yl)amino)phenyl)-N-methylmethanesulfonamide]	0.1 to 0.5
CN(c1ccccc1Nc1cc(Nc2cccc(C#N)n2)nc2[nH]c(C(F)F)nc12)S(C)(=O)=O [I-44, N-(2-((5-((6-cyanopyridin-2-yl)amino)-2-(difluoromethyl)-3H-imidazo[4,5-b]pyridin-7-yl)amino)phenyl)-N-methylmethanesulfonamide]	< 0.1
Cc1cc(Nc2cc(Nc3ccccc3N(C)S(C)(=O)=O)c3nc(C(F)F)[nH]c3n2)nc(C)n1 [I-45, N-(2-((2-(difluoromethyl)-5-((2,6-dimethylpyrimidin-4-yl)amino)-3H-imidazo[4,5-b]pyridin-7-yl)amino)phenyl)-N-methylmethanesulfonamide]	0.1 to 0.5
COc1c(Nc2cc(Nc3ccc(NCCCCl)c(C#N)n3)nc3[nH]c(C(F)F)nc23)cccc1-c1nnn(C)n1 [I-46, 3-((3-chloropropyl)amino)-6-((2-(difluoromethyl)-7-((2-methoxy-3-(2-methyl-2H-tetrazol-5-yl)phenyl)amino)-3H-imidazo[4,5-b]pyridin-5-yl)amino)picolinonitrile]	0.5 to 1
COc1c(Nc2cc(Nc3cnc(N4CCOCC4)c(C#N)n3)nc3[nH]c(C(F)F)nc23)cccc1-c1nnn(C)n1 [I-47, 6-((2-(difluoromethyl)-7-((2-methoxy-3-(2-methyl-2H-tetrazol-5-yl)phenyl)amino)-3H-imidazo[4,5-b]pyridin-5-yl)amino)-3-morpholinopyrazine-2-carbonitrile]	1 to 10
COc1c(Nc2cc(Nc3cnc(N4CC[C@@H](OC)C4)c(C#N)n3)nc3[nH]c(C(F)F)nc23)cccc1-c1nnn(C)n1 [I-48, (R)-6-((2-(difluoromethyl)-7-((2-methoxy-3-(2-methyl-2H-tetrazol-5-yl)phenyl)amino)-3H-imidazo[4,5-b]pyridin-5-yl)amino)-3-(3-methoxypyrrolidin-1-yl)pyrazine-2-carbonitrile]	1 to 10
COc1c(Nc2cc(Nc3ccc(C(C)(C)OC)c(C#N)n3)nc3[nH]c(C(F)F)nc23)cccc1-c1nnn(C)n1 [I-49, 6-((2-(difluoromethyl)-7-((2-methoxy-3-(2-methyl-2H-tetrazol-5-yl)phenyl)amino)-3H-imidazo[4,5-b]pyridin-5-yl)amino)-3-(2-methoxypropan-2-yl)picolinonitrile]	> 10
COC1CN(c2ccc(Nc3cc(NC(=O)C4CC4)nc4[nH]c(C(F)F)nc34)c(N(C)S(C)(=O)=O)c2)C1 [I-50, N-(2-(difluoromethyl)-7-((4-(3-methoxyazetidin-1-yl)-2-(N-methylmethylsulfonamido)phenyl)amino)-3H-imidazo[4,5-b]pyridin-5-yl)cyclopropanecarboxamide]	1 to 10
COc1c(Nc2cc(NC(=O)C3CC3)nc3[nH]c(C(F)F)nc23)cccc1-n1cnc(C)n1 [I-51, N-(2-(difluoromethyl)-7-((2-methoxy-3-(3-methyl-1H-1,2,4-triazol-1-yl)phenyl)amino)-3H-imidazo[4,5-b]pyridin-5-yl)cyclopropanecarboxamide]	> 10
COc1c(Nc2cc(NC(=O)C3CC3)nc3[nH]c(C(F)F)nc23)cccc1-c1nn(C)nc1C [I-53, N-(2-(difluoromethyl)-7-((3-(2,5-dimethyl-2H-1,2,3-triazol-4-yl)-2-methoxyphenyl)amino)-3H-imidazo[4,5-b]pyridin-5-yl)cyclopropanecarboxamide]	> 10
COc1c(Nc2cc(NC(=O)C3CC3)nc3[nH]c(C(F)F)nc23)cccc1-n1nc(C)nc1C [I-54, N-(2-(difluoromethyl)-7-((3-(3,5-dimethyl-1H-1,2,4-triazol-1-yl)-2-methoxyphenyl)amino)-3H-imidazo[4,5-b]pyridin-5-yl)cyclopropanecarboxamide]	> 10
COc1c(Nc2cc(NC(=O)C3CC3)nc3[nH]c(C(F)F)nc23)cccc1-n1ncnc1C [I-55, N-(2-(difluoromethyl)-7-((2-methoxy-3-(5-methyl-1H-1,2,4-triazol-1-yl)phenyl)amino)-3H-imidazo[4,5-b]pyridin-5-yl)cyclopropanecarboxamide]	> 10
COc1c(Nc2cc(Nc3cnc(C(C)(C)OC)c(C)n3)nc3[nH]c(C(F)F)nc23)cccc1-c1nnn(C)n1 [I-56, 2-(difluoromethyl)-N7-(2-methoxy-3-(2-methyl-2H-tetrazol-5-yl)phenyl)-N5-(5-(2-methoxypropan-2-yl)-6-methylpyrazin-2-yl)-3H-imidazo[4,5-b]pyridine-5,7-diamines]	1 to 10
CS(=O)(=O)c1cc(Cl)ccc1Nc1cc(NC(=O)C2CC2)nc2[nH]c(C(F)F)nc12 [I-58, N-(7-((4-chloro-2-(methylsulfonyl)phenyl)amino)-2-(difluoromethyl)-3H-imidazo[4,5-b]pyridin-5-yl)cyclopropanecarboxamide]	0.5 to 1
Cc1ncc(Nc2cc(Nc3ccccc3N(C)S(C)(=O)=O)c3nc(C(F)F)[nH]c3n2)nc1C [I-59, N-(2-((2-(difluoromethyl)-5-((5,6-dimethylpyrazin-2-yl)amino)-3H-imidazo[4,5-b]pyridin-7-yl)amino)phenyl)-N-methylmethanesulfonamide]	0.1 to 0.5
Cc1ccc(Nc2cc(Nc3ccccc3N(C)S(C)(=O)=O)c3nc(C(F)F)[nH]c3n2)nc1C#N [I-60, N-(2-((5-((6-cyano-5-methylpyridin-2-yl)amino)-2-(difluoromethyl)-3H-imidazo[4,5-b]pyridin-7-yl)amino)phenyl)-N-methylmethanesulfonamides]	< 0.1
